Experiments:
[1] = test system: acetylcholine-induced bronchospasm; experiment: Antagonism to acetylcholine-provoked bronchospasm in anesthetized guinea pigs (Konzett and Rossler), i.v.; antiasthmatic / bronchospasmolytic activity; assay type: in vivo; details: guinea pig; for ED50: Cavia porcellus, iv, 20γ acetylcholine per kg i.v., graphic extrapolation, read-out: Bronchospasmolytic ED50 against acetylcholine-induced bronchospasm
Procedure: The antiasthmatic activity was tested as the antagonism to bronchospasm provoked by intravenous administration of 20γ of acetylcholine per kg body weight in anesthetized guinea pigs (according to method of Konzett and Rossler). From the average percentage decrease of the bronchospasm produced by administering various doses of the compounds of the […] invention an ED50 was determined by graphic extrapolation. The compounds were administered intravenously.

[2] = Acute toxicity after i.v. administration in NMRI-mice (Litchfield and Wilcoxon); details: mouse, in vivo, iv, both sexes, deaths within 14 days, read-out: LD50 in the mouse after i.v. application
Procedure: The acute toxicity was determined with NMRI-mice of both sexes (body weight 20 gm) after intravenous administration of the compound. 0.1 ml of a 0.9% sodium chloride solution per 10gm of animal was used as the vehicle.

[3] = test system: heart rate; experiment: Effect on heart rate of the anesthetized cat after intravenous administration; assay type: in vivo; design: key to type of the reaction (heart rate): --: decrease in heart rate; details: i.v.; for ED10 (dose leading to a 10% alteration of the heart rate) / ED25 (dose leading to a 25% alteration of the heart rate): graphic extrapolation; for type of the reaction (heart rate): tested dosage range 250 - 4,000 γ/kg (A 12.5 - 16,000; W 125 - 4,000)
Procedure: The effect on the heart rate was tested on cats of both sexes (body weight between 2.3 and 3.5 kg) under chloralose-urethane anesthesia. The heart rate was continuously registered by means of a Grass-tachograph 7P4, controlled by the R-wave of the electrocardiogram. The test compound was injected through a catheter introduced into the vena femoralis.

[4] = test system: quantity of secretion; experiment: Expectorant (secretolytic) activity in anesthetized guinea pigs (Perry et al, modified by Engelhorn et al), oral; assay type: in vivo; details: guinea pig, over 2 hours
Procedure: The expectorant activity was ascertained by the method of Perry et al, J. Pharmcol. exp. Therap. 73, 65 (1941), as modified by Engelhorn et al, Arzneim. Forsch. 21, 1045 (1971), on male guinea pigs (body weight from 450 to 550 gm), which has been anesthetized by intraperitoneal injection of a 25% urethane solution (1.0 gm/kg). The test compound was administered orally at the indicated dosage levels, each in 2 ml of distilled water, by means of an esophageal tube. 5 tests per dose. The increase in secretion was calculated from the quantity of fluid secreted over a period of 2 hours after administration of the test compound, as compared to the quantity secreted without administration of the test compound.

Row | Structure (SMILES) | ED50 [1] [mg/kg] | Average duration of effective action in the ED50 range [1] [min] | LD50 at 336 h [2] [mg/kg] | ED10 (dose leading to a 10% alteration of the heart rate) [3] | ED25 (dose leading to a 25% alteration of the heart rate) [3] | type of the reaction (heart rate) [3] | percent change in quantity of secretion (increase) ([4]; dose 0.5 γ/kg) [%] | percent change in quantity of secretion (increase) ([4]; dose 5 γ/kg) [%]
1 | CCN(CC)CCCN1c2ccccc2N(C)C(=O)c2cccnc21.Cl [A, 11-(3'-diethylamino-n-propyl)-6,11-dihydro-6-methyl-5H-pyrido[2,3-b][1,5]benzodiazepin-5-one hydrochloride] | 0.031 | > 130 | 62.3 | 2,100 γ/kg | > 16,000 γ/kg | -- | 80 | 114
2 | CC(C)N(CCCN1c2ccccc2N(C)C(=O)c2cccnc21)C(C)C.Cl [J, 6,11-dihydro-11-(3'-diisopropylamino-n-propyl)-6-methyl-5H-pyrido[2,3-b][1,5]benzodiazepin-5one hydrochloride] | 0.0165 | 50 | 22.6 | 1,950 γ/kg | > 4,000 γ/kg | -- | 108 | 
3 | CCN(CCCN1c2ccccc2N(C)C(=O)c2cccnc21)C(C)C.Cl [K, 11-[3'-(n-ethyl-N-isopropyl-amino)-n-propyl]-6,11-dihydro-6-methyl-5H-pyrido[2,3-b][1,5]benzodiazepin-5-one hydrochloride] | 0.02 | > 80 | 30 | 1,350 γ/kg | > 4,000 γ/kg | -- | 113 | 

— patent US4021557A, “11-Aminoalkyl-pyridobenzodiazepinones and salts thereof” (Boehringer Ingelheim GmbH, priority 1974, dated 1977)
